Assay results from the NIST ThermoML archive (doi:10.1021/je901020a).

Key:
[1] = refractive index (Na D-line) (dimensionless); xn = mol fraction of the nth substance listed; details: 101 kPa, Liquid, Standard Abbe refractometry
[2] = xn = mol fraction of the nth substance listed; details: 101 kPa, Liquid; for speed of sound: Pulse-echo method

C1CCCC1 [cyclopentane] + Cc1ccccc1C
Details	mass density, [2] [kg/m3]	refractive index, [1]	speed of sound, [2] [m/s]
298.15 K, x1 = 0.045	870.7	1.49951	1342
298.15 K, x1 = 0.0924	865.7	1.49549	1336
298.15 K, x1 = 0.1949	854.1	1.48698	1319
298.15 K, x1 = 0.2932	842.5	1.4791	1304
298.15 K, x1 = 0.3903	830.4	1.47003	1289
298.15 K, x1 = 0.4954	816.6	1.46059	1273
298.15 K, x1 = 0.594	802.9	1.4507	1259
298.15 K, x1 = 0.6958	788.1	1.43935	1244
298.15 K, x1 = 0.7939	773	1.42832	1231
298.15 K, x1 = 0.8926	757.3	1.41649	1217
298.15 K, x1 = 0.9503	747.9	1.40949	1210
298.15 K, x1 = 1	740	1.40292	1204
313.15 K, x1 = 0.072	855	1.48922	1277
313.15 K, x1 = 0.0931	852.7	1.48739	1274
313.15 K, x1 = 0.1919	841.5	1.47936	1257
313.15 K, x1 = 0.2934	829.3	1.47048	1241
313.15 K, x1 = 0.3772	818.8	1.46299	1227
313.15 K, x1 = 0.4855	804.6	1.45278	1209
313.15 K, x1 = 0.5894	790.1	1.44238	1192
313.15 K, x1 = 0.685	776.2	1.43216	1177
313.15 K, x1 = 0.8099	756.9	1.41833	1158
313.15 K, x1 = 0.8912	743.6	1.40862	1146
313.15 K, x1 = 0.9479	734.1	1.402	1138
313.15 K, x1 = 1	725	1.39456	1130

C1CCCC1 [cyclopentane] + Cc1cccc(C)c1
Details	mass density, [2] [kg/m3]	refractive index, [1]	speed of sound, [2] [m/s]
298.15 K, x1 = 0.0391	856.1	1.49183	1315
298.15 K, x1 = 0.0908	851.1	1.48818	1308
298.15 K, x1 = 0.1894	841.2	1.48065	1296
298.15 K, x1 = 0.2859	831.2	1.47341	1284
298.15 K, x1 = 0.3868	820.1	1.46504	1272
298.15 K, x1 = 0.4808	809.2	1.45745	1260
298.15 K, x1 = 0.6394	789.8	1.44242	1241
298.15 K, x1 = 0.6923	782.9	1.43668	1235
298.15 K, x1 = 0.7909	769.7	1.42686	1224
298.15 K, x1 = 0.8952	755	1.41504	1214
298.15 K, x1 = 0.9514	746.9	1.40888	1208
298.15 K, x1 = 1	740	1.40292	1204
313.15 K, x1 = 0.0431	842.9	1.48387	1253
313.15 K, x1 = 0.0812	839.2	1.48096	1248
313.15 K, x1 = 0.1859	828.6	1.47303	1234
313.15 K, x1 = 0.2864	818	1.46521	1220
313.15 K, x1 = 0.3348	812.6	1.46128	1213
313.15 K, x1 = 0.4741	796.4	1.44893	1194
313.15 K, x1 = 0.5747	784.1	1.43989	1181
313.15 K, x1 = 0.6933	768.8	1.42834	1166
313.15 K, x1 = 0.7932	755.2	1.4181	1153
313.15 K, x1 = 0.8961	740.5	1.4067	1141
313.15 K, x1 = 0.9472	733	1.40122	1135
313.15 K, x1 = 1	725	1.39456	1130

Cc1cccc(C)c1 [1,3-dimethylbenzene] + CC1CCCCC1
Details	mass density, [2] [kg/m3]	refractive index, [1]	speed of sound, [2] [m/s]
298.15 K, x2 = 0	859.8	1.49466	1321
298.15 K, x2 = 0.0514	854.4	1.49046	1313
298.15 K, x2 = 0.0975	849.6	1.4867	1307
298.15 K, x2 = 0.159	843.2	1.48174	1298
298.15 K, x2 = 0.2977	829.1	1.47072	1281
298.15 K, x2 = 0.399	819.1	1.46292	1269
298.15 K, x2 = 0.4954	809.7	1.45565	1258
298.15 K, x2 = 0.5965	800.2	1.44827	1248
298.15 K, x2 = 0.6974	791	1.44107	1238
298.15 K, x2 = 0.7948	782.3	1.4343	1230
298.15 K, x2 = 0.8933	773.8	1.42759	1222
298.15 K, x2 = 0.9495	769.1	1.42388	1218
313.15 K, x2 = 0	846.9	1.48653	1259
313.15 K, x2 = 0.0457	842.1	1.4829	1252
313.15 K, x2 = 0.0933	837.1	1.47908	1246
313.15 K, x2 = 0.1938	826.7	1.47103	1232
313.15 K, x2 = 0.2886	817	1.46361	1219
313.15 K, x2 = 0.3966	806.3	1.45534	1206
313.15 K, x2 = 0.5077	795.5	1.44702	1194
313.15 K, x2 = 0.595	787.3	1.44063	1184
313.15 K, x2 = 0.6933	778.3	1.43362	1175
313.15 K, x2 = 0.7987	768.8	1.42615	1165
313.15 K, x2 = 0.8973	760.3	1.41945	1157
313.15 K, x2 = 0.9504	756.1	1.41609	1153
